# Results reported in the NIST ThermoML archive (doi:10.1021/je900596d).
# Numbers after ± are expanded uncertainties.
# Settings: for mass density: Vibrating tube method
smiles,measurement,setting,value
FC(F)=C(F)C(F)(F)F [hexafluoropropene],mass density,"343.18 K, 7163.7 kPa, Liquid",1166.5 ± 1.2 kg/m3
same,mass density,"343.18 K, 7207.1 kPa, Liquid",1167.25 ± 1.2 kg/m3
same,mass density,"343.18 K, 7249.5 kPa, Liquid",1168.08 ± 1.2 kg/m3
same,mass density,"343.18 K, 7293.3 kPa, Liquid",1168.78 ± 1.2 kg/m3
same,mass density,"343.18 K, 7354.7 kPa, Liquid",1169.81 ± 1.2 kg/m3
same,mass density,"343.18 K, 7477.5 kPa, Liquid",1171.63 ± 1.2 kg/m3
same,mass density,"343.18 K, 7539.3 kPa, Liquid",1172.69 ± 1.2 kg/m3
same,mass density,"343.18 K, 7580 kPa, Liquid",1173.37 ± 1.2 kg/m3
same,mass density,"343.18 K, 7621.6 kPa, Liquid",1174.18 ± 1.2 kg/m3
same,mass density,"343.18 K, 7663.4 kPa, Liquid",1174.54 ± 1.2 kg/m3
same,mass density,"343.18 K, 7709.7 kPa, Liquid",1175.39 ± 1.2 kg/m3
same,mass density,"343.18 K, 7753.6 kPa, Liquid",1176.17 ± 1.2 kg/m3
same,mass density,"343.18 K, 7797.5 kPa, Liquid",1176.76 ± 1.2 kg/m3
same,mass density,"343.18 K, 7837.6 kPa, Liquid",1177.31 ± 1.2 kg/m3
same,mass density,"343.18 K, 7898.4 kPa, Liquid",1178.24 ± 1.2 kg/m3
same,mass density,"343.18 K, 7941.1 kPa, Liquid",1178.97 ± 1.2 kg/m3
same,mass density,"343.18 K, 7984.5 kPa, Liquid",1179.58 ± 1.2 kg/m3
same,mass density,"343.18 K, 8043.1 kPa, Liquid",1180.22 ± 1.2 kg/m3
same,mass density,"343.18 K, 8085.6 kPa, Liquid",1180.85 ± 1.2 kg/m3
same,mass density,"343.18 K, 8131.1 kPa, Liquid",1181.65 ± 1.2 kg/m3
same,mass density,"343.18 K, 8209.9 kPa, Liquid",1183.02 ± 1.2 kg/m3
same,mass density,"343.18 K, 8291.5 kPa, Liquid",1184.04 ± 1.2 kg/m3
same,mass density,"343.18 K, 8335.5 kPa, Liquid",1184.74 ± 1.2 kg/m3
same,mass density,"343.18 K, 8378 kPa, Liquid",1185.42 ± 1.2 kg/m3
same,mass density,"343.18 K, 8419.6 kPa, Liquid",1185.91 ± 1.2 kg/m3
same,mass density,"343.18 K, 8464.8 kPa, Liquid",1186.51 ± 1.2 kg/m3
same,mass density,"343.18 K, 8525.6 kPa, Liquid",1187.33 ± 1.2 kg/m3
same,mass density,"343.18 K, 8587 kPa, Liquid",1188.25 ± 1.2 kg/m3
same,mass density,"343.18 K, 8628.5 kPa, Liquid",1188.86 ± 1.2 kg/m3
same,mass density,"343.18 K, 8670.7 kPa, Liquid",1189.47 ± 1.2 kg/m3
same,mass density,"343.18 K, 8714.6 kPa, Liquid",1189.91 ± 1.2 kg/m3
same,mass density,"343.18 K, 8776.2 kPa, Liquid",1190.93 ± 1.2 kg/m3
same,mass density,"343.18 K, 8818.3 kPa, Liquid",1191.58 ± 1.2 kg/m3
same,mass density,"343.18 K, 8881.2 kPa, Liquid",1192.4 ± 1.2 kg/m3
same,mass density,"343.18 K, 8941.7 kPa, Liquid",1193.53 ± 1.2 kg/m3
same,mass density,"343.18 K, 9000.5 kPa, Liquid",1194.02 ± 1.2 kg/m3
same,mass density,"343.18 K, 9064 kPa, Liquid",1194.66 ± 1.2 kg/m3
same,mass density,"343.18 K, 9123.4 kPa, Liquid",1195.43 ± 1.2 kg/m3
same,mass density,"343.18 K, 9184.1 kPa, Liquid",1196.23 ± 1.2 kg/m3
same,mass density,"343.18 K, 9262 kPa, Liquid",1197.29 ± 1.2 kg/m3
same,mass density,"343.18 K, 9304.6 kPa, Liquid",1197.74 ± 1.2 kg/m3
same,mass density,"343.18 K, 9350.1 kPa, Liquid",1198.56 ± 1.2 kg/m3
same,mass density,"343.18 K, 9408.2 kPa, Liquid",1199.15 ± 1.2 kg/m3
same,mass density,"343.18 K, 9449.8 kPa, Liquid",1199.74 ± 1.2 kg/m3
same,mass density,"343.18 K, 9509.5 kPa, Liquid",1200.56 ± 1.2 kg/m3
same,mass density,"343.18 K, 9567.5 kPa, Liquid",1201.28 ± 1.2 kg/m3
same,mass density,"343.18 K, 9607.9 kPa, Liquid",1202.1 ± 1.2 kg/m3
same,mass density,"343.18 K, 9667.5 kPa, Liquid",1202.79 ± 1.2 kg/m3
same,mass density,"343.18 K, 9708 kPa, Liquid",1203.31 ± 1.3 kg/m3
same,mass density,"343.18 K, 9749.9 kPa, Liquid",1203.76 ± 1.2 kg/m3
same,mass density,"343.18 K, 9796.9 kPa, Liquid",1204.53 ± 1.2 kg/m3
same,mass density,"343.18 K, 9839 kPa, Liquid",1205.06 ± 1.3 kg/m3
same,mass density,"343.18 K, 9920.9 kPa, Liquid",1205.9 ± 1.2 kg/m3
same,mass density,"343.18 K, 9962.6 kPa, Liquid",1206.45 ± 1.3 kg/m3
same,vapor or sublimation pressure,"343.21 K, Liquid, Closed cell (Static) method",2243.8 ± 4 kPa
same,mass density,"343.26 K, 3.2 kPa, Fluid (supercritical or subcritical phases)",0.22 ± 0.03 kg/m3
same,mass density,"343.26 K, 5.9 kPa, Fluid (supercritical or subcritical phases)",0.35 ± 0.03 kg/m3
same,mass density,"343.26 K, 8.6 kPa, Fluid (supercritical or subcritical phases)",0.55 ± 0.03 kg/m3
same,mass density,"343.26 K, 10.3 kPa, Fluid (supercritical or subcritical phases)",0.63 ± 0.03 kg/m3
same,mass density,"343.26 K, 12.1 kPa, Fluid (supercritical or subcritical phases)",0.73 ± 0.03 kg/m3
same,mass density,"343.26 K, 14.8 kPa, Fluid (supercritical or subcritical phases)",0.81 ± 0.03 kg/m3
same,mass density,"343.26 K, 16.4 kPa, Fluid (supercritical or subcritical phases)",1 ± 0.03 kg/m3
same,mass density,"343.26 K, 19.5 kPa, Fluid (supercritical or subcritical phases)",1.07 ± 0.03 kg/m3
same,mass density,"343.26 K, 22.4 kPa, Fluid (supercritical or subcritical phases)",1.29 ± 0.03 kg/m3
same,mass density,"343.26 K, 24.3 kPa, Fluid (supercritical or subcritical phases)",1.34 ± 0.03 kg/m3
same,mass density,"343.26 K, 25.9 kPa, Fluid (supercritical or subcritical phases)",1.39 ± 0.03 kg/m3
same,mass density,"343.26 K, 29 kPa, Fluid (supercritical or subcritical phases)",1.68 ± 0.03 kg/m3
